# Laboratory results from patent US20210329919A9, “SYNTHESIS AND ANTI-CANCER ACTIVITY OF COMMUNESIN ALKALOIDS” (Massachusetts Institute of Technology, priority 2019, published 2021).
# Where two headings read alike, the source gives them in different places.
# Assays:
# A549 (lung carcinoma) = assay: Cell viability assay (Cell Titer-Glo), A549; type: cell-based, human; details: read-out: IC50 (μM) A549
# Protocol: (§1) Cells were grown in media supplemented with fetal bovine serum (FBS) and antibiotics ([…] and 100 U/mL streptomycin). Specifically, experiments were performed using the following cell lines and media compositions: HeLa (cervical adenocarcimona) and A549 (lung carcinoma) were grown in RPMI-1640+10% FBS; HCT-116 (colorectal carcinoma) was grown in DMEM+10% FBS; DU-145 (prostate carcinoma) and MCF7 (breast adenocarcinoma) were grown in EMEM+10% FBS. Cells were incubated at 37° C. in a 5% CO2, 95% humidity atmosphere.
# (§2) Cells were plated at 2000 cells/well into duplicate assay plates in 50 L media into 384-well white, opaque, tissue-culture treated plates and allowed to adhere overnight at 37° C./5% CO2. Compounds were solubilized in DMSO as 1000× stocks and 100 nl was pin-transferred to cells (V&P pin tool mounted on Tecan Freedom Evo MCA96). Compounds were tested in 10-pt, 2-fold dilution with concentrations tested between 1 nM-20 μM for most compounds, except where indicated. DMSO (32 wells of 384-wells) was used as vehicle control. After 72 hours of incubation at 37° C./5% CO2, 10 L Cell Titer-Glo (Promega) was added to each well and plates were incubated at room temperature for 10 minutes before the luminescence was read on a Tecan M1000 plate reader. Cell Titer-Glo measures ATP levels of cells as a surrogate for cell viability. All compound-treated wells was normalized to the DMSO control averages and expressed as a % of DMSO viability. IC50 values were determined from the dose curves using Spotfire (Perkin Elmer).
# [1] = system: DU-145 (prostate carcinoma); assay: Cell viability assay (Cell Titer-Glo), DU-145; type: cell-based, human; details: read-out: IC50 (μM) DU-145
# Protocol: as §1, §2
# [2] = system: HCT-116 (colorectal carcinoma); assay: Cell viability assay (Cell Titer-Glo), HCT-116; type: cell-based, human; details: read-out: IC50 (μM) HCT-116
# Protocol: as §1, §2
# [3] = system: HeLa (cervical adenocarcinoma); assay: Cell viability assay (Cell Titer-Glo), HeLa; type: cell-based, human; details: read-out: IC50 (μM) HeLa
# Protocol: as §1, §2
# [4] = system: MCF7 (breast adenocarcinoma); assay: Cell viability assay (Cell Titer-Glo), MCF7; type: cell-based, human; details: read-out: IC50 (μM) MCF7
# Protocol: as §1, §2
# [5] = system: A549, DU-145, HCT116, HeLa and MCF7 cell lines; assay: Cytotoxicity across all five cancer cell lines (text summary of Table 1); details: for decrease in potency/activity relative to (−)-communesin B (4): N8-H or N8-formyl vs N8-methyl
# Protocol: as §1, §2
# With samples of all known communesin alkaloids and a selection of unnatural derivatives in hand, the anticancer activity for this entire class of natural products was explored. While previous isolation reports have evaluated the activity of selected natural communesins, no comprehensive comparison of the entire class of alkaloids across multiple cell lines has been performed.
# [6] = system: P-388 lymphocytic leukemia cells; details: cultured mouse P-388 lymphocytic leukemia cells; cited from earlier work
# [7] = system: third instar larvae of silkworms; details: cited from earlier work; for insecticidal activity compared with communesin B (4): silkworms
# vasculogenesis = details: in vivo; cited from earlier work
# [8] = system: human leukemia cell lines; details: array of human leukemia cell lines; cited from earlier work
# [9] = Homo sapiens, A549, cytotoxicity after 72 h of compound treatment, Cell Titer-Glo (ATP levels)
# [10] = Homo sapiens, DU-145, cytotoxicity after 72 h of compound treatment, Cell Titer-Glo (ATP levels)
# [11] = Homo sapiens, HCT-116, cytotoxicity after 72 h of compound treatment, Cell Titer-Glo (ATP levels)
# [12] = Homo sapiens, cytotoxicity after 72 h of compound treatment, Cell Titer-Glo (ATP levels)
# [13] = Homo sapiens, MCF7, cytotoxicity after 72 h of compound treatment, Cell Titer-Glo (ATP levels)
# [14] = cytotoxicity after 72 h of compound treatment, Cell Titer-Glo (ATP levels)
structure (smiles),measurement,setting,value
"C/C=C/C=C/C(=O)N1CC[C@@]23c4ccccc4N[C@@H]4N(C=O)c5cccc6c5[C@@]42CCN([C@@H]13)[C@@H]6[C@H]1OC1(C)C [(+)-6, (+)-communesin D]",IC50,"A549 (lung carcinoma); Homo sapiens, A549, 72 h",> 125 µM
same,IC50,"[1]; Homo sapiens, DU-145, 72 h",84 µM
same,IC50,"[2]; Homo sapiens, HCT-116, 72 h",111 µM
same,IC50,"[3]; Homo sapiens, 72 h",63 µM
same,IC50,"[4]; Homo sapiens, MCF7, 72 h",> 125 µM
same,decrease in potency/activity relative to (−)-communesin B (4),[5],two- to threefold decrease in activity
"CC(=O)N1CC[C@@]23c4ccccc4N[C@@H]4N(C=O)c5cccc6c5[C@@]42CCN([C@@H]13)[C@@H]6[C@H]1OC1(C)C [(+)-43, (+)-N8-formyl communesin E]",IC50,A549 (lung carcinoma); [9],> 250 µM
same,IC50,[1]; [10],> 250 µM
same,IC50,[2]; [11],> 250 µM
same,IC50,[3]; [12],> 125 µM
same,IC50,[4]; [13],> 250 µM
same,cytotoxic potency across all cell lines (in words),[5],principally inactive
"CC(=O)N1CC[C@@]23c4ccccc4N[C@@H]4N(C)c5cccc6c5[C@@]42CCN([C@@H]6C=C(C)C)[C@@H]13 [(−)-1, (−)-communesin F]",IC50,A549 (lung carcinoma); [14],117 µM
same,IC50,[1]; [14],119 µM
same,IC50,[2]; [14],> 125 µM
same,IC50,[3]; [14],115 µM
same,IC50,[4]; [14],84 µM
"CC(=O)N1CC[C@@]23c4ccccc4N[C@@H]4N(C)c5cccc6c5[C@@]42CCN([C@@H]13)[C@@H]6[C@H]1OC1(C)C [(−)-2, (−)-communesin A]",IC50,A549 (lung carcinoma); [9],> 125 µM
same,IC50,[1]; [10],> 250 µM
same,IC50,[2]; [11],> 250 µM
same,IC50,[3]; [12],> 125 µM
same,IC50,[4]; [13],> 250 µM
same,cytotoxic potency across all cell lines (in words),[5],principally inactive
"CC(=O)N1CC[C@@]23c4ccccc4N[C@@H]4Nc5cccc6c5[C@@]42CCN([C@@H]13)[C@@H]6[C@H]1OC1(C)C [(−)-3, (−)-communesin E]",IC50,A549 (lung carcinoma); [9],> 500 µM
same,IC50,[1]; [10],> 500 µM
same,IC50,[2]; [11],> 500 µM
same,IC50,[3]; [12],> 500 µM
same,IC50,[4]; [13],> 500 µM
same,cytotoxic potency across all cell lines (in words),[5],principally inactive
"C/C=C/C=C/C(=O)N1CC[C@@]23c4ccccc4N[C@@H]4N(C)c5cccc6c5[C@@]42CCN([C@@H]13)[C@@H]6[C@H]1OC1(C)C [(−)-4, (−)-communesin B]",IC50,A549 (lung carcinoma); [9],56 µM
same,IC50,[1]; [10],45 µM
same,IC50,[2]; [11],60 µM
same,IC50,[3]; [12],47 µM
same,IC50,[4]; [13],34 µM
"C/C=C/C=C/C(=O)N1CC[C@@]23c4ccccc4N[C@@H]4Nc5cccc6c5[C@@]42CCN([C@@H]13)[C@@H]6[C@H]1OC1(C)C [(−)-5, (−)-communesin C]",IC50,"A549 (lung carcinoma); Homo sapiens, A549, 72 h",115 µM
same,IC50,"[1]; Homo sapiens, DU-145, 72 h",82 µM
same,IC50,"[2]; Homo sapiens, HCT-116, 72 h",106 µM
same,IC50,"[3]; Homo sapiens, 72 h",94 µM
same,IC50,"[4]; Homo sapiens, MCF7, 72 h",65 µM
same,decrease in potency/activity relative to (−)-communesin B (4),[5],two- to threefold decrease in activity
"CCC(=O)N1CC[C@]23c4ccccc4N[C@H]4N(C)c5cccc6c5[C@]42CCN([C@H]6[C@@H]2OC2(C)C)[C@H]13 [(−)-7, (−)-communesin G]",IC50,A549 (lung carcinoma); [14],> 125 µM
same,IC50,[1]; [14],> 125 µM
same,IC50,[2]; [14],> 125 µM
same,IC50,[3]; [14],> 125 µM
same,IC50,[4]; [14],> 250 µM
same,cytotoxic potency across all cell lines (in words),[5],principally inactive
"CCCC(=O)N1CC[C@]23c4ccccc4N[C@H]4N(C)c5cccc6c5[C@]42CCN([C@H]6[C@@H]2OC2(C)C)[C@H]13 [(−)-8, (−)-communesin H]",IC50,A549 (lung carcinoma); [14],> 125 µM
same,IC50,[1]; [14],> 125 µM
same,IC50,[2]; [14],109 µM
same,IC50,[3]; [14],82 µM
same,IC50,[4]; [14],90 µM
"CCC[C@H](O)CC(=O)N1CC[C@@]23c4ccccc4N[C@@H]4N(C)c5cccc6c5[C@@]42CCN([C@@H]13)[C@@H]6[C@H]1OC1(C)C [(−)-10, (−)-communesin I]",IC50,A549 (lung carcinoma); [14],120 µM
same,IC50,[1]; [14],> 125 µM
same,IC50,[2]; [14],> 125 µM
same,IC50,[3]; [14],120 µM
same,IC50,[4]; [14],90 µM
C/C=C/C=C/C(=O)N1CC[C@@]23c4ccccc4N[C@@H]4N(C)c5cccc6c5[C@@]42CCN([C@@H]13)[C@@H]6[C@H]1OC1(C)C [(−)-communesin B (4)],cytotoxic potency across all cell lines (in words),[5],highest potency of all the natural products tested
C/C=C/C=C/C(=O)N1CC[C@@]23c4ccccc4N[C@@H]4N(C)c5cccc6c5[C@@]42CCN([C@@H]13)[C@@H]6[C@H]1OC1(C)C [(−)-communesin B],cytotoxic potency across all cell lines (in words),"[5]; A549, DU-145, HCT116, HeLa, MCF7",most potent natural isolate
"CC(=O)N1CC[C@@]23c4ccccc4N[C@@H]4N(C)c5cccc6c5[C@@]42CCN([C@@H]13)[C@@H]6[C@H]1OC1(C)C [Communesin A (2), (−)-communesin A]","ED50, cytotoxicity",[6],3.5 µg/mL
same,insecticidal activity compared with communesin B (4),[7],lower insecticidal activities
same,vasculogenetic activity,vasculogenesis,moderate vasculogenetic activity
"C/C=C/C=C/C(=O)N1CC[C@@]23c4ccccc4N[C@@H]4N(C)c5cccc6c5[C@@]42CCN([C@@H]13)[C@@H]6[C@H]1OC1(C)C [Communesin B (4), communesin B]","ED50, cytotoxicity",[6],0.45 µg/mL
same,"LD50, insecticidal","[7]; third instar larvae of silkworms, oral administration",5 μg/g of diet
"CC(=O)N1CC[C@@]23c4ccccc4N[C@@H]4N(C)c5cccc6c5[C@@]42CCN([C@@H]6C=C(C)C)[C@@H]13 [Communesin F (1), (−)-communesin F]",insecticidal activity compared with communesin B (4),[7],lower insecticidal activities
"C/C=C/C=C/C(=O)N1CC[C@@]23c4ccccc4N[C@@H]4Nc5cccc6c5[C@@]42CCN([C@@H]13)[C@@H]6[C@H]1OC1(C)C [communesin C (5), (−)-communesin C]",anti-proliferative activity,[8],moderate anti-proliferative activity
"C/C=C/C=C/C(=O)N1CC[C@@]23c4ccccc4N[C@@H]4N(C=O)c5cccc6c5[C@@]42CCN([C@@H]13)[C@@H]6[C@H]1OC1(C)C [communesin D (6), (+)-communesin D]",anti-proliferative activity,[8],moderate anti-proliferative activity
same,insecticidal activity compared with communesin B (4),[7],lower insecticidal activities
